The text below walks through data of patent US8779156B2, “Analogues for the treatment or prevention of flavivirus infections” (Vertex Pharmaceuticals Incorporated, priority 2010, dated 2014).

Structures are written as SMILES. Where only a bound is given, the exact number is not on record here.

This experiment deals with HCV (1b) replicon, Huh-ET cells. As to the kind of experiment: Cell-based luciferase reporter HCV (1b) RNA replication assay. As to conditions: Hepatitis C virus, 96 h; HCV 1b replicon, luciferase, 4 days incubation; read-out: EC50_1b. The source says: Cell-Based Luciferase Reporter HCV (Ib) RNA Replication Assay Cell Culture
Replicon cell lines Huh-5.2 are derived from the Huh-7 hepatocarcinoma cell line are maintained in culture as generally described in Krieger, N; Lohmann, V; Bartenschlager, R. Enhancement of hepatitis C virus RNA replication by cell culture-adaptive mutations. J. Virol. 2001, 75, 4614-4624. The Huh-5.2 cells contain the highly cell culture-adapted replicon I389luc-ubi-neo/NS3-375.1 construct that carries, in addition to the neomycin gene, an integrated copy to the firefly luciferase gene (Krieger, N; Lohmann, V; Bartenschlager, R. Enhancement of hepatitis C virus RNA replication by cell culture-adaptive mutations. J. Virol. 2001, 75, 4614-4624). This cell line allows measurement of HCV RNA replication and translation by measuring luciferase activity. It has been previously shown that the luciferase activity tightly follows the replicon RNA level in these cells (Krieger, N; Lohmann, V; Bartenschlager, R. Enhancement of hepatitis C virus RNA replication by cell culture-adaptive mutations. J. Virol. 2001, 75, 4614-4624). The Huh-ET cell line has the same features as those mentioned for Huh-5.2 cell line, except that ET cells are more robust and contain an adaptative mutation in the HCV NS4B gene instead of NS5A. Both cell lines are maintained in cultures at a sub-confluent level (<85%) as the level of replicon RNA is highest in actively proliferating cells. The culture media used for cell passaging consist of DMEM (Gibco BRL Laboratories, Mississauga, ON, Canada) supplemented with 10% foetal bovine serum with 1% penicilin/streptomycin, 1% glutamine, 1% sodium pyruvate, 1% non-essential amino acids, and 180 μg/ml of G418 final concentration. Cells are incubated at 37° C., in an atmosphere of 5% CO2 and passaged twice a week to maintain sub-confluence.
Approximately 3000 viable Huh-ET cells (100 μl) are plated per well in a white opaque 96-well microtiter plate. The cell culture media used for the assay is the same as described above except that it contains no G418 and no phenol red. After an incubation period of 3-4 hours at 37° C. in a 5% CO2 incubator, compounds (100 μl) are added at various concentrations. Cells are then further incubated for 4 days at 37° C. in a 5% CO2 incubator. Thereafter, the culture media is removed and cells are lysed by the addition of 95 μL of the luciferase buffer (luciferin substrate in buffered detergent). Cell lysates are incubated at room temperature and protected from direct light for at least 10 minutes. Plates are read for luciferase counts using a luminometer (Wallac MicroBeta Trilux, Perkin Elmer™, MA, USA).
Curves are fitted to data points using nonlinear regression analysis, and IC50s are interpolated from the resulting curve using GraphPad Prism software, version 2.0 (GraphPad Software Inc., San Diego, Calif., USA).
Background: A reporter such as luciferase makes a cellular process visible.
With `COC(=O)N[C@H](C(=O)N1C[C@@H](C)C[C@H]1c1nc(C#Cc2ccc(-c3ccc4[nH]c([C@@H]5C[C@H](C)CN5C(=O)[C@@H](NC(=O)OC)C(C)C)nc4c3)cc2)c[nH]1)C(C)C` [Compound 12, Methyl N-[(1S)-1-[(2S,4S)-2-[4-[2-[4-[2-[(2S,4S)-1-[(2S)-2-(methoxycarbonylamino)-3-methyl-butanoyl]-4-methyl-pyrrolidin-2-yl]-1H-benzimidazol-5-yl]phenyl]ethynyl]-1H-imidazol-2-yl]-4-methyl-pyrrolidine-1-carbonyl]-2-methyl-propyl]carbamate], the EC50 is no more than 5 nM. As for `COC(=O)N[C@H](C(=O)N1C[C@@H](C)C[C@H]1c1nc(-c2cc3sc(-c4ccc5[nH]c([C@@H]6C[C@H](C)CN6C(=O)[C@@H](NC(=O)OC)C(C)C)nc5c4)cc3s2)c(C)[nH]1)C(C)C` [Compound 19], the EC50 was no more than 5 nM. For the compound `COC(=O)N[C@H](C(=O)N1C[C@@H](C)C[C@H]1c1nc(-c2ccc(-c3ccc(-c4cc(C)c5[nH]c([C@@H]6C[C@H](C)CN6C(=O)[C@@H](NC(=O)OC)C(C)C)nc5c4)cc3)cc2)c[nH]1)C(C)C` [Compound 28], the EC50 was no more than 5 nM. Under `COC(=O)N[C@H](C(=O)N1CC(C)(C)C[C@H]1c1nc(-c2ccc(-c3ccc(-c4ccc5[nH]c([C@@H]6CC(C)(C)CN6C(=O)[C@@H](NC(=O)OC)C(C)C)nc5c4)cc3)cc2)c[nH]1)C(C)C` [Compound 23] stands no more than 5 nM.

Regarding `COC(=O)N[C@H](C(=O)N1C[C@@H](C)C[C@H]1c1nc(-c2ccc3cc(-c4ccc5[nH]c([C@@H]6C[C@H](C)CN6C(=O)[C@@H](NC(=O)OC)C(C)C)nc5c4)sc3c2)c[nH]1)C(C)C` [Compound 41], the EC50 is no more than 5 nM.

Take `COC(=O)N[C@H](C(=O)N1CCC[C@H]1c1nc(-c2ccc(-c3ccc4[nH]c([C@@H]5CCCN5C(=O)[C@@H](NC(=O)OC)C(C)C)nc4c3)cc2)c[nH]1)C(C)C` [Compound 3, Methyl N-[(1S)-1-[(2S)-2-[4-[4-[2-[(2S)-1-[(2S)-2-(methoxycarbonylamino)-3-methyl-butanoyl]pyrrolidin-2-yl]-1H-benzimidazol-5-yl]phenyl]-1H-imidazol-2-yl]pyrrolidine-1-carbonyl]-2-methyl-propyl]carbamate]: the EC50 is no more than 5 nM. As to `COC(=O)N[C@H](C(=O)N1C[C@@H](C)C[C@H]1c1nc(-c2cc3sc(-c4ccc5[nH]c([C@@H]6C[C@H](C)CN6C(=O)[C@@H](NC(=O)OC)C(C)C)nc5c4)cc3s2)c[nH]1)C(C)C` [Compound 16, Methyl N-[(1S)-1-[(2S,4S)-2-[4-[5-[2-[(2S,4S)-1-[(2S)-2-(methoxycarbonylamino)-3-methyl-butanoyl]-4-methyl-pyrrolidin-2-yl]-1H-benzimidazol-5-yl]thieno[3,2-b]thiophen-2-yl]-1H-imidazol-2-yl]-4-methyl-pyrrolidine-1-carbonyl]-2-methyl-propyl]carbamate], the EC50 is no more than 5 nM. With `O=C(OCc1ccccc1)N1CCC[C@H]1c1ncc(-c2ccc(C#Cc3ccc4[nH]c([C@@H]5CCCN5C(=O)OCc5ccccc5)nc4c3)cc2)[nH]1` [Compound 2], the EC50 lay in the range of 5 to 5000 nM.

As for `COC(=O)N[C@H](C(=O)N1C[C@@H](C)C[C@H]1c1nc(-c2cc3sc(-c4ccc5[nH]c([C@@H]6C[C@H](C)CN6C(=O)[C@H](C(C)C)N6CCOC6=O)nc5c4)cc3s2)c[nH]1)C(C)C` [Compound 40], the EC50 was no more than 5 nM.

On to `COC(=O)N[C@H](C(=O)N1C[C@@H](C)C[C@H]1c1nc(-c2ccc(-c3ccc(-c4cc5nc([C@@H]6C[C@H](C)CN6C(=O)[C@@H](NC(=O)OC)C(C)C)[nH]c5cc4C)cc3)cc2)c[nH]1)C(C)C` [Compound 35], for which the EC50 is no more than 5 nM.

Regarding `COC(=O)N[C@H](C(=O)N1C[C@@H](C)C[C@H]1c1nc(C#Cc2cc3sc(-c4ccc5[nH]c([C@@H]6C[C@H](C)CN6C(=O)[C@@H](NC(=O)OC)C(C)C)nc5c4)cc3s2)c[nH]1)C(C)C` [Compound 44], the EC50 was no more than 5 nM.

For `COC(=O)N[C@H](C(=O)N1C[C@@H](C)C[C@H]1c1nc(-c2ccc(-c3ccc4nc([C@@H]5C[C@H](C)CN5C(=O)[C@@H](NC(=O)OC)C(C)C)[nH]c4c3)cc2)c(-c2cc3sccc3s2)[nH]1)C(C)C` [Compound 26], the EC50 was no more than 5 nM.

As to `COC(=O)N[C@H](C(=O)N1C[C@@H](C)C[C@H]1c1nc(-c2ccc(-c3ccc(-c4ccc5[nH]c([C@@H]6C[C@H](C)CN6C(=O)[C@@H](NC(=O)OC)C(C)C)nc5c4)c4c3OCO4)cc2)c[nH]1)C(C)C` [Compound 30], the EC50 was no more than 5 nM. The same measure for `COC(=O)N[C@H](C(=O)N1C[C@@H](C)C[C@H]1c1ncc(-c2ccc(-c3ccc(-c4ccc5[nH]c([C@@H]6C[C@H](C)CN6C(=O)[C@@H](NC(=O)OC)C(C)C)nc5c4)c(C)c3)cc2C)[nH]1)C(C)C` [Compound 31]: no more than 5 nM.

In the case of `COC(=O)N[C@H](C(=O)N1C[C@@H](C)C[C@H]1c1nc(C)c(-c2ccc(-c3ccc(-c4ccc5[nH]c([C@@H]6C[C@H](C)CN6C(=O)[C@@H](NC(=O)OC)C(C)C)nc5c4)cc3)cc2)[nH]1)C(C)C` [Compound 15, Methyl N-[(1S)-1-[(2S,4S)-2-[5-[4-[4-[2-[(2S,4S)-1-[(2S)-2-(methoxycarbonylamino)-3-methyl-butanoyl]-4-methyl-pyrrolidin-2-yl]-1H-benzimidazol-5-yl]phenyl]phenyl]-4-methyl-1H-imidazol-2-yl]-4-methyl-pyrrolidine-1-carbonyl]-2-methyl-propyl]carbamate], the EC50 is no more than 5 nM. `COC(=O)N[C@H](C(=O)N1C[C@@H](C)C[C@H]1c1nc(-c2ccc(-c3ccc(-c4ccc5[nH]c([C@@H]6C[C@H](C)CN6C(=O)[C@@H](NC(=O)OC)C(C)C)nc5c4)cc3F)cc2)c[nH]1)C(C)C` [Compound 39]: the EC50 is no more than 5 nM. Under `[2H]c1c([2H])c(-c2ccc3[nH]c([C@@H]4C[C@H](C)CN4C(=O)[C@@H](NC(=O)OC)C(C)C)nc3c2)c([2H])c([2H])c1-c1ccc(-c2c[nH]c([C@@H]3C[C@H](C)CN3C(=O)[C@@H](NC(=O)OC)C(C)C)n2)cc1` [Compound 52] stands no more than 5 nM.
